Source: PubChem BioAssay (NCI)
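Where inhibition never reached the appropriate level, the endpoint shown equals the highest concentration tested. Otherwise, values were interpolated linearly from a five-concentration, 48-hour dose response in 96-well plates. GI50 = concentration required for 50% inhibition of growth. TGI is the concentration that stops growth completely.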

Assays:
Experiment in all cases: inhibition of tumour cell growth, NCI panel, 48 h; in the data active means GI50 below about 0.43 µM; inactive means the rest
[1] = tested on: NCI-H460 lung
[2] = tested on: HCC-2998 colon
[3] = tested on: A549 NSCLC
[4] = tested on: SR leukemia
[5] = tested on: HOP-62 NSCLC
[6] = tested on: RPMI-8226 leukemia
[7] = tested on: SN12C renal
[8] = tested on: LOX IMVI melanoma
[9] = tested on: MOLT-4 leukemia
[10] = tested on: CAKI-1 renal
[11] = tested on: 786-0 renal
[12] = tested on: T-47D breast
[13] = tested on: ACHN renal
[14] = tested on: UACC-257 melanoma
[15] = tested on: SK-OV-3 ovarian
[16] = tested on: SNB-75 CNS
[17] = tested on: OVCAR-4 ovarian
[18] = tested on: HCT-15 colon
[19] = tested on: SNB-19 CNS
[20] = tested on: NCI/ADR-RES ovarian
[21] = tested on: SK-MEL-5 melanoma
[22] = tested on: SW-620 colon
[23] = tested on: U251 CNS
[24] = tested on: KM12 colon
[25] = tested on: HL-60(TB) leukemia
[26] = tested on: OVCAR-8 ovarian
[27] = tested on: EKVX NSCLC
[28] = tested on: HT29 colon
[29] = tested on: SK-MEL-2 melanoma
[30] = tested on: UO-31 renal
[31] = tested on: PC-3 prostate
[32] = tested on: MCF7 breast
[33] = tested on: MDA-MB-435
[34] = tested on: SF-295 CNS
[35] = tested on: M14 melanoma
[36] = tested on: OVCAR-5 ovarian
[37] = tested on: HOP-92 NSCLC
[38] = tested on: IGROV1 ovarian
[39] = tested on: SK-MEL-28 melanoma
[40] = tested on: A498 renal
[41] = tested on: COLO 205 colon
[42] = tested on: HCT-116 colon
[43] = tested on: HS 578T breast
[44] = tested on: MDA-MB-231 breast
[45] = tested on: SF-539 CNS
[46] = tested on: OVCAR-3 ovarian
[47] = tested on: CCRF-CEM leukemia
[48] = tested on: NCI-H226 lung
[49] = tested on: NCI-H23 lung
[50] = tested on: RXF 393 renal
[51] = tested on: DU-145 prostate
[52] = tested on: BT-549 breast
[53] = tested on: SF-268 CNS
[54] = tested on: TK-10 renal
[55] = tested on: MALME-3M melanoma
[56] = tested on: K-562 leukemia
[57] = tested on: NCI-H522 lung

CC(=O)N1CCN([C@H]2CCC[C@@H](NC(=O)c3cc4c(F)ccc(C)c4[nH]3)C2)CC1
68.1 µM: TGI [16]
> 100 µM: TGI [1] | TGI [2] | TGI [3] | TGI [5] | TGI [6] | TGI [7] | TGI [8] | TGI [9] | TGI [10] | TGI [11] | TGI [12] | TGI [13] | TGI [15] | TGI [17] | TGI [18] | TGI [19] | TGI [20] | TGI [22] | TGI [23] | TGI [24] | TGI [25] | TGI [26] | TGI [27] | TGI [29] | TGI [31] | TGI [32] | TGI [33] | TGI [34] | TGI [36] | TGI [37] | TGI [38] | TGI [40] | TGI [41] | TGI [42] | TGI [44] | TGI [45] | TGI [46] | TGI [47] | TGI [48] | TGI [49] | TGI [51] | TGI [52] | TGI [53] | TGI [54] | TGI [56] | TGI [57]
28.5 µM: TGI [21]
29 µM: TGI [39]
34.3 µM: TGI [35]
inactive: GI50 [1] 18.3 µM | GI50 [2] 18.7 µM | GI50 [3] 10.8 µM | GI50 [4] 14 µM | GI50 [5] 15.3 µM | GI50 [6] 24.9 µM | GI50 [7] 21.9 µM | GI50 [8] 16.4 µM | GI50 [9] 19.4 µM | GI50 [10] 11.2 µM | GI50 [11] 36.6 µM | GI50 [12] 25.2 µM | GI50 [13] 32.5 µM | GI50 [14] 13.6 µM | GI50 [15] 37.2 µM | GI50 [16] 5.43 µM | GI50 [17] 11.3 µM | GI50 [18] 19.9 µM | GI50 [19] 33.3 µM | GI50 [20] 69.9 µM | GI50 [21] 15.1 µM | GI50 [22] 85.1 µM | GI50 [23] 32.1 µM | GI50 [24] 44.3 µM | GI50 [25] 62.5 µM | GI50 [26] 46.5 µM | GI50 [27] 10.7 µM | GI50 [28] 16.7 µM | GI50 [29] 34.9 µM | GI50 [30] 1.78 µM | GI50 [31] 26.1 µM | GI50 [32] 13.5 µM | GI50 [33] 24.6 µM | GI50 [34] 10.8 µM | GI50 [35] 15.3 µM | GI50 [36] 39.9 µM | GI50 [37] 18.4 µM | GI50 [38] 4.83 µM | GI50 [39] 13.5 µM | GI50 [40] 14 µM | GI50 [41] 24.5 µM | GI50 [42] 27.5 µM | GI50 [43] 4.66 µM | GI50 [44] 22.3 µM | GI50 [45] 13.8 µM | GI50 [46] 42.9 µM | GI50 [47] 21.6 µM | GI50 [48] 16.9 µM | GI50 [49] 20.3 µM | GI50 [50] 2.17 µM | GI50 [51] 24.6 µM | GI50 [52] 15.6 µM | GI50 [53] 23 µM | GI50 [54] 18.7 µM | GI50 [55] 10.1 µM | GI50 [56] 31.1 µM | GI50 [57] 10.8 µM
71.6 µM: TGI [28]
29.8 µM: TGI [55]
81 µM: TGI [4]
27.8 µM: TGI [14]
9.61 µM: TGI [50]
47.6 µM: TGI [43]
3.91 µM: TGI [30]
